Reference: ChEMBL document CHEMBL4219215, “Discovery of {4-[4,9-bis(ethyloxy)-1-oxo-1,3-dihydro-2H-benzo[f]isoindol-2-yl]-2-fluorophenyl}acetic acid (GSK726701A), a novel EP4 receptor partial agonist for the treatment of pain” (Bioorg Med Chem Lett, 2018)

Legend:
Cytochrome P450 1A2 = target: T1, Cytochrome P450 1A2 (Homo sapiens, UniProt P05177); assay: Inhibition of human recombinant CYP1A2; format: ADME; details: human, recombinant enzyme
T1 sequence (P05177 whole entry): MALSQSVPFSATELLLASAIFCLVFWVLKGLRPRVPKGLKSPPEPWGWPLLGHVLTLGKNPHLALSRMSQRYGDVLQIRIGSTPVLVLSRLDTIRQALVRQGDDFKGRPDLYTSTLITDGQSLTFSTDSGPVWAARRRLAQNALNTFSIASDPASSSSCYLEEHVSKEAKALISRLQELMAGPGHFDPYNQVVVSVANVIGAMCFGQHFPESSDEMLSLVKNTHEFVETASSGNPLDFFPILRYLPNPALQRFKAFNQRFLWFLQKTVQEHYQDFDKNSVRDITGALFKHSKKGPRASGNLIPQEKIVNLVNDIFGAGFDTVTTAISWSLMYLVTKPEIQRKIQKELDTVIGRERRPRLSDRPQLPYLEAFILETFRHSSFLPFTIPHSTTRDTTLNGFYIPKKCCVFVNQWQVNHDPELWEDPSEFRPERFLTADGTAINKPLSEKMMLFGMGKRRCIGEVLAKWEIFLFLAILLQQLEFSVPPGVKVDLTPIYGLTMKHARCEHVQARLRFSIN

Cytochrome P450 2C19 = Cytochrome P450 2C19 (Homo sapiens, UniProt P33261); assay: Inhibition of human recombinant CYP2C19; format: ADME; details: human, recombinant enzyme
Cytochrome P450 2D6 = Cytochrome P450 2D6 (Homo sapiens, UniProt P10635); assay: Inhibition of human recombinant CYP2D6; format: ADME; details: human, recombinant enzyme
Cytochrome P450 3A4 [1] = target: T2, Cytochrome P450 3A4 (Homo sapiens, UniProt P08684); assay: Inhibition of human recombinant CYP3A4 using DEF substrate; format: ADME; details: human, recombinant enzyme
Cytochrome P450 3A4 [2] = target: T2, Cytochrome P450 3A4; assay: Inhibition of human recombinant CYP3A4 using 7BQ substrate; format: ADME; details: human, recombinant enzyme
[3] = Intrinsic clearance in rat liver microsomes; format: ADME, microsome
[4] = Intrinsic clearance in human liver microsomes; format: ADME, microsome
[5] = Blood clearance in rat at 1 mg/kg, po; format: ADME, organism-based
[6] = Half life in rat at 1 mg/kg, po; format: ADME, organism-based; details: in vivo
Rattus norvegicus [7] = assay: Analgesic activity in orally dosed rat model of Freund's complete adjuvant-induced acute inflammatory pain assessed as reversal of FCA-induced hypersensitivity; format: functional; details: po
[8] = Total drug level in blood of orally dosed rat model of Freund's complete adjuvant-induced acute inflammatory pain assessed as reduction in reversal of hypersensitivity; format: ADME, organism-based; details: in vivo, po, read-out: Drug uptake
Rattus norvegicus [9] = assay: Analgesic activity in rat model of Freund's complete adjuvant-induced acute inflammatory pain assessed as reversal of FCA-induced hypersensitivity at 3 mg/kg, po relative to untreated control; format: functional
Rattus norvegicus [10] = assay: Potency index, ratio of ED50 for CCI17474 to ED50 for test compound for analgesic activity in orally dosed rat model of Freund's complete adjuvant-induced acute inflammatory pain assessed as reversal of FCA-induced hypersensitivity; format: functional
Homo sapiens [11] = organism: Homo sapiens; assay: Selectivity index, ratio of pIC50 for EP1 receptor (unknown origin) to pEC50 for partial agonist activity at human EP4 receptor expressed in HEK293-AEQ17 cells; format: cell-based
Homo sapiens [12] = organism: Homo sapiens; assay: Selectivity index, ratio of pIC50 for EP3 receptor (unknown origin) to pEC50 for partial agonist activity at human EP4 receptor expressed in HEK293-AEQ17 cells; format: cell-based
Homo sapiens [13] = organism: Homo sapiens; assay: Selectivity index, ratio of pIC50 for FP receptor (unknown origin) to pEC50 for partial agonist activity at human EP4 receptor expressed in HEK293-AEQ17 cells; format: cell-based
Homo sapiens [14] = organism: Homo sapiens; assay: Selectivity index, ratio of agonist activity at IP receptor (unknown origin) to pEC50 for partial agonist activity at human EP4 receptor expressed in HEK293-AEQ17 cells; format: cell-based
Homo sapiens [15] = organism: Homo sapiens; assay: Selectivity index, ratio of antagonist activity at IP receptor (unknown origin) to pEC50 for partial agonist activity at human EP4 receptor expressed in HEK293-AEQ17 cells; format: cell-based
[16] = target: Prostaglandin E2 receptor EP4 subtype (Homo sapiens, UniProt P35408); assay: Partial agonist activity at EP4 receptor in human whole blood assessed as inhibition of LPS-induced TNFalpha production; format: functional
[17] = target: T3, Prostaglandin E2 receptor EP1 subtype (Homo sapiens, UniProt P34995); assay: Activity at EP1 receptor (unknown origin)
T3 sequence (P34995 whole entry): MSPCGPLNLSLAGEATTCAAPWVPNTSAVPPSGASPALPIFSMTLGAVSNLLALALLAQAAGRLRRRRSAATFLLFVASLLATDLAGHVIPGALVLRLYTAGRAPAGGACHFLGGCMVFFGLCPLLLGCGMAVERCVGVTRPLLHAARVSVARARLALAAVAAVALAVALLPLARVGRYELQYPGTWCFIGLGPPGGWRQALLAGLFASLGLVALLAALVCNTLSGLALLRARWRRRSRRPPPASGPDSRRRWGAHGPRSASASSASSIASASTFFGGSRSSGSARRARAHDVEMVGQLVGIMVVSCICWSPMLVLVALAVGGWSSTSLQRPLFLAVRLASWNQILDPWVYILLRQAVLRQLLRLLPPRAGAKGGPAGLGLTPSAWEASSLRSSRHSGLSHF

[18] = target: Prostaglandin E2 receptor EP2 subtype (Homo sapiens) (UniProt P43116); assay: Agonist activity at EP2 receptor (unknown origin) assessed as induction of receptor activation at 1 uM; format: functional
[19] = target: T4, Prostaglandin D2 receptor (Homo sapiens, UniProt Q13258); assay: Activity at DP1 receptor (unknown origin)
T4 sequence (Q13258 whole entry): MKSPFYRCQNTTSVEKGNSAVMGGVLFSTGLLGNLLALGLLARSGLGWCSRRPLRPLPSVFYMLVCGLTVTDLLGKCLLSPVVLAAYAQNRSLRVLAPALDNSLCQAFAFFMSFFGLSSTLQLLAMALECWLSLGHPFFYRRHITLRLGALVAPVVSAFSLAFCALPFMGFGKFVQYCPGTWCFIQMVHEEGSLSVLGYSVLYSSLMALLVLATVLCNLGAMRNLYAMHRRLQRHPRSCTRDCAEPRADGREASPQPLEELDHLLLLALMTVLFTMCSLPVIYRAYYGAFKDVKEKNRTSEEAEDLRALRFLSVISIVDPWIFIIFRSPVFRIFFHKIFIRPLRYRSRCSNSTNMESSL

[20] = target: Prostacyclin receptor (Homo sapiens) (UniProt P43119); assay: Agonist activity at IP receptor (unknown origin) assessed as induction of receptor activation at 1 uM; format: functional
[21] = Intrinsic clearance in dog liver microsomes; format: ADME, Canis lupus familiaris, microsome
Canis familiaris = assay: Blood clearance in orally dosed dog; format: ADME, organism-based, Canis lupus familiaris; details: in vivo, po
Cynomolgus monkey = assay: Blood clearance in orally dosed cynomolgus monkey; format: ADME, organism-based, Macaca fascicularis; details: in vivo, po
[22] = Half life in orally dosed cynomolgus monkey; format: ADME, organism-based, Macaca fascicularis; details: in vivo, po
[23] = Oral bioavailability in dog; format: ADME, organism-based, Canis lupus familiaris; details: in vivo
[24] = Oral bioavailability in cynomolgus monkey; format: ADME, organism-based, Macaca fascicularis; details: in vivo
[25] = Protein binding in rat plasma; format: ADME, cell-free; details: read-out: PPB (converted)
Rattus norvegicus [26] = assay: Analgesic activity in rat model of chronic joint pain dosed twice daily for 5 days; format: functional; details: 120 h
Rattus norvegicus [27] = assay: Analgesic activity in rat model of chronic constriction injury-induced neuropathic pain assessed as reversal of mechanical allodynia at 3 mg/kg dosed twice daily for 8 days; format: functional, organism-based; details: TDE = time-dependent effect

T2 sequence (P08684 whole entry): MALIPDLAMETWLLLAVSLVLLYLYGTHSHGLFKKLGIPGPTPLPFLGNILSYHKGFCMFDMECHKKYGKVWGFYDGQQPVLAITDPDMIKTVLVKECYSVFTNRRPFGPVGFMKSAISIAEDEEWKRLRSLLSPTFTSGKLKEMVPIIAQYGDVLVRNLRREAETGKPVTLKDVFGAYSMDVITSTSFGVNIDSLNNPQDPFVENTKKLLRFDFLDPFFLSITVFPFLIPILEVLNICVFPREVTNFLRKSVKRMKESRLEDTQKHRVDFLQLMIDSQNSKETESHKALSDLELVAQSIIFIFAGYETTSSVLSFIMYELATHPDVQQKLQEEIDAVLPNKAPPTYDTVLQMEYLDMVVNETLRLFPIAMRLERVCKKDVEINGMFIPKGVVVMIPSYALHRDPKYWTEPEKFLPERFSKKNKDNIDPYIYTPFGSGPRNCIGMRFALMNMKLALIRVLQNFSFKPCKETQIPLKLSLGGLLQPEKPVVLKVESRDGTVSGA
Sequence of Cytochrome P450 2D6 (P10635 whole entry): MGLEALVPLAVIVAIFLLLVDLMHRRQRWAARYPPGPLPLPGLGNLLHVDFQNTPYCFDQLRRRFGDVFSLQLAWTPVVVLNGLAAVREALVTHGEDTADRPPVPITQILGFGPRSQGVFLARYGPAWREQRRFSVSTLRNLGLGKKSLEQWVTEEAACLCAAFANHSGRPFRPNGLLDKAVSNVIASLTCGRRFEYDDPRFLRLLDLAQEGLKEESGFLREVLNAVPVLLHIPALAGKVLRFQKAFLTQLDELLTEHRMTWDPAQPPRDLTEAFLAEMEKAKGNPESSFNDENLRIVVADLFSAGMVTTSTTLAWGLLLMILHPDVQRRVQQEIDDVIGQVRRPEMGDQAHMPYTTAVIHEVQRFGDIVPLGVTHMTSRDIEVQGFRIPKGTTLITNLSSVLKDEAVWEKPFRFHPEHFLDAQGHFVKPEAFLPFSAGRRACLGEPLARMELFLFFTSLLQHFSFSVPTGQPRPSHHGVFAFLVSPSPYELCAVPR
Sequence of Prostaglandin E2 receptor EP4 subtype (P35408 whole entry): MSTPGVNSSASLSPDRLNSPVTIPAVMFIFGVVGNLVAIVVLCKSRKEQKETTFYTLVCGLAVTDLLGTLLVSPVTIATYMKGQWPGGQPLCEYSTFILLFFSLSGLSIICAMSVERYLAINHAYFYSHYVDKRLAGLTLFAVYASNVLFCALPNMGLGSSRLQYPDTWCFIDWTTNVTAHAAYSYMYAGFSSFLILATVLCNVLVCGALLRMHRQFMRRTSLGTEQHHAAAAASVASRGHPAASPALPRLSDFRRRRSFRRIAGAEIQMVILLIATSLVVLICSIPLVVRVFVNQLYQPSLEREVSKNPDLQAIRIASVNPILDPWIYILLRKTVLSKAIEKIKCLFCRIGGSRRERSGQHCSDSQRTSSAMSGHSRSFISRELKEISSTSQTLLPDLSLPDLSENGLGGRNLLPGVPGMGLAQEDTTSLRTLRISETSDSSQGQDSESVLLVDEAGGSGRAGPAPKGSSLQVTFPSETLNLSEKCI
Sequence of Cytochrome P450 2C19 (P33261 whole entry): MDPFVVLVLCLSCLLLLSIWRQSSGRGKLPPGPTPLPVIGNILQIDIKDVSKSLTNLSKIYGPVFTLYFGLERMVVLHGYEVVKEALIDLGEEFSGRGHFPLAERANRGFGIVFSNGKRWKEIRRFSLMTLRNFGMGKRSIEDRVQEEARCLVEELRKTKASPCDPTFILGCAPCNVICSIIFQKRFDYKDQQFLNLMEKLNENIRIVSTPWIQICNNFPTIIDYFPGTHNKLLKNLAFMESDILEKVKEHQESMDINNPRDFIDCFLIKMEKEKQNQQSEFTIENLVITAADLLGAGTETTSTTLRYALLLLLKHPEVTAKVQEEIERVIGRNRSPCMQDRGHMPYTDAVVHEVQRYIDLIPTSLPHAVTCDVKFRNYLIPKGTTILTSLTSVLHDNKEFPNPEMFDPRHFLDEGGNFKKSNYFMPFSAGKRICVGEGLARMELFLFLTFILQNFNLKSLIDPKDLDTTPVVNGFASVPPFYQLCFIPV
Sequence of Prostaglandin E2 receptor EP2 subtype (Homo sapiens) (P43116 whole entry): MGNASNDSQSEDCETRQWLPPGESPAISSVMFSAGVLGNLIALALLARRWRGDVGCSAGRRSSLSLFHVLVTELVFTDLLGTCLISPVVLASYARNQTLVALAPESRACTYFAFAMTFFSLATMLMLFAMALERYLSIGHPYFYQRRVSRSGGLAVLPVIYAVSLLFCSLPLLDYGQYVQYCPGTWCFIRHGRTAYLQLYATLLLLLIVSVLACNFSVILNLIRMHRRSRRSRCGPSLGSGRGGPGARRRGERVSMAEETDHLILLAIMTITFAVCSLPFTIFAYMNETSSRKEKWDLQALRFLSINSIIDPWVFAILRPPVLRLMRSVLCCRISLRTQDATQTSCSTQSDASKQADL
Sequence of Prostacyclin receptor (Homo sapiens) (P43119 whole entry): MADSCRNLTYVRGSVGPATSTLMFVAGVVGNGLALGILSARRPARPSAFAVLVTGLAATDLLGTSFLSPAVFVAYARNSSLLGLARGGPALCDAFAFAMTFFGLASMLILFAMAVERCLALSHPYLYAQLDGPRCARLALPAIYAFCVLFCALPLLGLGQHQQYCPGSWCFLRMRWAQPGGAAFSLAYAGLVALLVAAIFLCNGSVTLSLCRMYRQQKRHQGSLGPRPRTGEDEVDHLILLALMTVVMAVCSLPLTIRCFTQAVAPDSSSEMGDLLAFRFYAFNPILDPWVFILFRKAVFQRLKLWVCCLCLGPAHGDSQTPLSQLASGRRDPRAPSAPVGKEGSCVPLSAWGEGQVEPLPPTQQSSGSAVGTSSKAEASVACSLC

INH (Cytochrome P450 1A2): > 100 µM | INH (Cytochrome P450 2C19): > 100 µM | INH (Cytochrome P450 2D6): > 100 µM | INH (Cytochrome P450 3A4 [1]): > 100 µM | INH (Cytochrome P450 3A4 [2]): > 100 µM | CLH [3]: < 1 mL/min/g | CLH [4]: < 1 mL/min/g | CL/F [5]: 1 mL/min/kg | half-life [6]: 6 h | concentration [8]: 600 nM | EC50 [16]: 0.00631 µM | IC50 [17]: > 10 µM | Activity [18]: 14% | IC50 [19]: > 31.6 µM | Activity [20]: 11% | CLH [21]: < 1 mL/min/g | clearance (Canis familiaris): 4 mL/min/kg | clearance (Cynomolgus monkey): 4 mL/min/kg | half-life [22]: 5 to 10 h | bioavailability [23]: 69% | bioavailability [24]: 50% | fraction unbound [25]: 0.002
Compound: CCOc1c2c(c(OCC)c3ccccc13)C(=O)N(c1ccc(CC(=O)O)c(F)c1)C2
ED50 (Rattus norvegicus [7]): 0.2 to 0.22 mg/kg | Activity (Rattus norvegicus [9]): 80% | Ratio ED50 (Rattus norvegicus [10]): >10 | Selectivity ratio (Homo sapiens [11]): > 100 | Selectivity ratio (Homo sapiens [12]): > 100 | Selectivity ratio (Homo sapiens [13]): > 100 | Selectivity ratio (Homo sapiens [14]): > 100 | Selectivity ratio (Homo sapiens [15]): > 100 | ED50 (Rattus norvegicus [26]): 0.23 mg/kg | Activity (Rattus norvegicus [27]): Tde
